“And” between values parts separate entries of the source, which are not always exact repeats. Equal values may be shown once.
Assay: Ex vivo biodistribution study in Sprague Dawley rats
Details: SD rats
Description: To evaluate the kinetics and the tissue distribution of [^18F]FS1P1 in rodents, Sprague Dawley (SD) male rats (6-7 weeks old; 200-300 g) were used and euthanized at 5, 30, 60, and 120 min post-injection. The radioactivity uptake of each organ was calculated as percentage injected dose per gram (% ID/gram). As shown in FIG. 7A-FIG. 7B, the initial tracer uptake was high in most tissues at 5 min. The liver had the highest uptake (% ID/g) at 3.04±0.18, whereas the heart, lung, spleen, kidney, and small intestine had moderate to high uptake at 1.39±0.15, 1.44±0.13, 1.14±0.13, 1.76±0.15, and 1.00±0.21 respectively. The radioactivity was rapidly washed out from heart, lung, pancreas, spleen, kidney, and liver, at 30 min post injection with ID %/g values decreasing to 0.55±0.02, 0.84±0.05, 0.66±0.04, 0.54±0.03, 1.13±0.66, and 2.51±0.10 respectively as shown in FIG. 7A.
A dose of [^18F]FS1P1 (˜3.7 MBq/100 μL) was injected via the tail vein into SD rats (male; 6-7 weeks old; 200-300 g). Rats were euthanized under anesthesia at 5, 30, 60, and 120 min post-injection (n=4 per group). Tissues of interest including blood, heart, lung, muscle, fat, pancreas, spleen, kidney, liver, brain, bone, thymus, small intestine, and large intestine were collected, weighed, and counted on an automated Beckman Gamma counter (Beckman, Brea, CA). To evaluate the uptake of [^18F]FS1P1 within the brain, brain dissection was performed and different brain regions including brain stem, cerebellum, cortex, striatum, thalamus, and hippocampus were collected and evaluated. The uptake of each organ was calculated and expressed as a percentage of the injection dose per gram of wet tissue (% ID per gram).

Cc1ccccc1-c1ccc(-c2nc(-c3ccc(CN(C)CCC(=O)O)c([18F])c3)no2)cc1C(F)(F)F [[^18F]FS1P1]
Tissue uptake (% ID/g) (Blood, 5 min post-injection): 0.16 ± 0.09 % ID/g
Tissue uptake (% ID/g) (Blood, 30 min post-injection): 0.13 ± 0.01 % ID/g
Tissue uptake (% ID/g) (Blood, 60 min post-injection): 0.13 ± 0.01 % ID/g
Tissue uptake (% ID/g) (Blood, 120 min post-injection): 0.10 ± 0.01 % ID/g
Tissue uptake (% ID/g) (Bone, 5 min post-injection): 0.20 ± 0.13 % ID/g
Tissue uptake (% ID/g) (Bone, 30 min post-injection): 0.16 ± 0.01 % ID/g
Tissue uptake (% ID/g) (Bone, 60 min post-injection): 0.15 ± 0.02 % ID/g
Tissue uptake (% ID/g) (Bone, 120 min post-injection): 0.11±0.02 % ID/g
Tissue uptake (% ID/g) (Brain stem, 5 min post-injection): 0.48 ± 0.14 % ID/g
Tissue uptake (% ID/g) (Brain stem, 30 min post-injection): 0.52 ± 0.03 % ID/g
Tissue uptake (% ID/g) (Brain stem, 60 min post-injection): 0.68 ± 0.07 % ID/g
Tissue uptake (% ID/g) (Brain stem, 120 min post-injection): 0.71 ± 0.11 % ID/g
Tissue uptake (% ID/g) (Cerebellum, 5 min post-injection): 0.42 ± 0.28 % ID/g
Tissue uptake (% ID/g) (Cerebellum, 30 min post-injection): 0.52 ± 0.05 % ID/g
Tissue uptake (% ID/g) (Cerebellum, 60 min post-injection): 0.66 ± 0.07 % ID/g
Tissue uptake (% ID/g) (Cerebellum, 120 min post-injection): 0.77 ± 0.12 % ID/g
Tissue uptake (% ID/g) (Cortex, 5 min post-injection): 0.35 ± 0.25 % ID/g
Tissue uptake (% ID/g) (Cortex, 30 min post-injection): 0.51 ± 0.07 % ID/g
Tissue uptake (% ID/g) (Cortex, 60 min post-injection): 0.59 ± 0.13 % ID/g
Tissue uptake (% ID/g) (Cortex, 120 min post-injection): 0.67 ± 0.10 % ID/g
Tissue uptake (% ID/g) (Fat, 5 min post-injection): 0.05 ± 0.03 % ID/g
Tissue uptake (% ID/g) (Fat, 30 min post-injection): 0.16 ± 0.02 % ID/g
Tissue uptake (% ID/g) (Fat, 60 min post-injection): 0.15 ± 0.02 % ID/g
Tissue uptake (% ID/g) (Fat, 120 min post-injection): 0.14 ± 0.02 % ID/g
Tissue uptake (% ID/g) (Heart, 5 min post-injection): 1.02 ± 0.69 % ID/g
Tissue uptake (% ID/g) (Heart, 30 min post-injection): 0.55±0.02 % ID/g and 0.54 ± 0.03 % ID/g
Tissue uptake (% ID/g) (Heart, 60 min post-injection): 0.49 ± 0.02 % ID/g
Tissue uptake (% ID/g) (Heart, 120 min post-injection): 0.39 ± 0.07 % ID/g
Tissue uptake (% ID/g) (Hippocampus, 5 min post-injection): 0.32 ± 0.21 % ID/g
Tissue uptake (% ID/g) (Hippocampus, 30 min post-injection): 0.41 ± 0.03 % ID/g
Tissue uptake (% ID/g) (Hippocampus, 60 min post-injection): 0.54 ± 0.03 % ID/g
Tissue uptake (% ID/g) (Hippocampus, 120 min post-injection): 0.42 ± 0.28 % ID/g
Tissue uptake (% ID/g) (Kidney, 5 min post-injection): 1.33 ± 0.87 % ID/g
Tissue uptake (% ID/g) (Kidney, 30 min post-injection): 1.13±0.66 % ID/g and 1.13 ± 0.13 % ID/g
Tissue uptake (% ID/g) (Kidney, 60 min post-injection): 1.10 ± 0.08 % ID/g
Tissue uptake (% ID/g) (Kidney, 120 min post-injection): 1.02 ± 0.17 % ID/g
Tissue uptake (% ID/g) (Liver, 5 min post-injection): 2.30 ± 1.50 % ID/g
Tissue uptake (% ID/g) (Liver, 30 min post-injection): 2.51±0.10 % ID/g and 2.51 ± 0.20 % ID/g
Tissue uptake (% ID/g) (Liver, 60 min post-injection): 2.32 ± 0.10 % ID/g
Tissue uptake (% ID/g) (Liver, 120 min post-injection): 2.08 ± 0.47 % ID/g
Tissue uptake (% ID/g) (Lung, 5 min post-injection): 1.08 ± 0.74 % ID/g
Tissue uptake (% ID/g) (Lung, 30 min post-injection): 0.84±0.05 % ID/g and 0.84 ± 0.09 % ID/g
Tissue uptake (% ID/g) (Lung, 60 min post-injection): 0.68 ± 0.04 % ID/g
Tissue uptake (% ID/g) (Lung, 120 min post-injection): 0.43 ± 0.30 % ID/g
Tissue uptake (% ID/g) (Muscle, 5 min post-injection): 0.11 ± 0.07 % ID/g
Tissue uptake (% ID/g) (Muscle, 30 min post-injection): 0.19 ± 0.01 % ID/g
Tissue uptake (% ID/g) (Muscle, 60 min post-injection): 0.18 ± 0.05 % ID/g
Tissue uptake (% ID/g) (Muscle, 120 min post-injection): 0.15 ± 0.02 % ID/g
Tissue uptake (% ID/g) (Pancreas, 5 min post-injection): 0.72 ± 0.47 % ID/g
Tissue uptake (% ID/g) (Pancreas, 30 min post-injection): 0.66±0.04 % ID/g and 0.66 ± 0.08 % ID/g
Tissue uptake (% ID/g) (Pancreas, 60 min post-injection): 0.52 ± 0.05 % ID/g
Tissue uptake (% ID/g) (Pancreas, 120 min post-injection): 0.43 ± 0.06 % ID/g
in vivo defluorination (bone uptake 5 to 120 min) (in words): no defluorination
Tissue uptake (% ID/g) (Small intestine, 5 min post-injection): 0.75 ± 0.57 % ID/g
Tissue uptake (% ID/g) (Small intestine, 30 min post-injection): 1.40 ± 0.36 % ID/g
Tissue uptake (% ID/g) (Small intestine, 60 min post-injection): 1.42 ± 0.36 % ID/g
Tissue uptake (% ID/g) (Small intestine, 120 min post-injection): 0.87 ± 0.21 % ID/g
Tissue uptake (% ID/g) (Spleen, 5 min post-injection): 0.86 ± 0.58 % ID/g
Tissue uptake (% ID/g) (Spleen, 30 min post-injection): 0.54±0.03 % ID/g and 0.54 ± 0.06 % ID/g
Tissue uptake (% ID/g) (Spleen, 60 min post-injection): 0.47 ± 0.05 % ID/g
Tissue uptake (% ID/g) (Spleen, 120 min post-injection): 0.37 ± 0.05 % ID/g
Tissue uptake (% ID/g) (Striatum, 5 min post-injection): 0.32 ± 0.21 % ID/g
Tissue uptake (% ID/g) (Striatum, 30 min post-injection): 0.46 ± 0.05 % ID/g
Tissue uptake (% ID/g) (Striatum, 60 min post-injection): 0.43 ± 0.29 % ID/g
Tissue uptake (% ID/g) (Striatum, 120 min post-injection): 0.67 ± 0.07 % ID/g
Tissue uptake (% ID/g) (Thymus, 5 min post-injection): 0.23 ± 0.16 % ID/g
Tissue uptake (% ID/g) (Thymus, 30 min post-injection): 0.30 ± 0.03 % ID/g
Tissue uptake (% ID/g) (Thymus, 60 min post-injection): 0.30 ± 0.04 % ID/g
Tissue uptake (% ID/g) (Thymus, 120 min post-injection): 0.31 ± 0.05 % ID/g
rat brain uptake (5 min post-injection): 0.48±0.06 ID %/g
rat brain uptake (30 min post-injection): 0.48±0.02 ID %/g
rat brain uptake (60 min post-injection): 0.60±0.04 ID %/g
rat brain uptake (120 min post-injection): 0.65±0.03 ID %/g
Tissue uptake (% ID/g) (thalamus, 5 min post-injection): 0.42 ± 0.31 % ID/g
Tissue uptake (% ID/g) (thalamus, 30 min post-injection): 0.53 ± 0.03 % ID/g
Tissue uptake (% ID/g) (thalamus, 60 min post-injection): 0.64 ± 0.06 % ID/g
Tissue uptake (% ID/g) (thalamus, 120 min post-injection): 0.70 ± 0.15 % ID/g
Tissue uptake (% ID/g) (total brain, 5 min post-injection): 2.65 ± 1.63 % ID/g
Tissue uptake (% ID/g) (total brain, 30 min post-injection): 3.41 ± 0.29 % ID/g
Tissue uptake (% ID/g) (total brain, 60 min post-injection): 4.12 ± 0.70 % ID/g
Tissue uptake (% ID/g) (total brain, 120 min post-injection): 4.58 ± 0.92 % ID/g

Reference: US20240228448A1 (Washington University, priority 2021, published 2024)
